Assay results published in patent publication US7862804B2, “Admistration of C-glycoside compounds for depigmenting/whitening the skin” (Loreal, priority 2005, dated 2011).

Tested on: actinic lentigines
Assay: Double blind clinical study versus placebo; dermatologist's clinical evaluation of actinic lentigines
Type: in vivo, human
Method: A clinical evaluation of actinic lentigines was carried out by a dermatologist at the beginning and at the end of the study according to a scale with 7 levels, including 4 main levels: • 0—absent; • 1—few blemishes; • 2—many blemishes; • 3—a great many blemishes; and 3 intermediate levels (0.5; 1.5; 2.5).
The women applied C-β-D-xylopyranoside-2-hydroxypropane at a concentration of 10% by weight with respect to the total weight of the composition in a proportion of 2 mg/cm^2 or the placebo twice daily for 3 months (98 days) to the pre-marked regions.

CC(O)C[C@@H]1OC[C@@H](O)[C@H](O)[C@H]1O (stereo partly drawn) [C-β-D-xylopyranoside-2-hydroxypropane]
mean score of actinic lentigines on the treated side, end of study (scale with 7 levels, 0-3, 10% by weight, 2 mg/cm^2 topical twice daily for 3 months (98 days), p=0.08): 0.93+/−0.68
mean score of actinic lentigines on the treated side, before treatment (scale with 7 levels, 0 absent to 3 a great many blemishes, 15 women, phototype III, baseline of treated side): 1.07+/−0.62
subjects exhibiting a lower score on the treated side, end of study (treated side versus placebo side, after 3 months (98 days) of 10% topical twice daily): 54%
subjects exhibiting a lower score on the treated side, at the beginning of the study (treated side versus placebo side, baseline): 13%
